Test results taken from article PMC11249626, “Fluorophore-Labeled Pyrrolones Targeting the Intracellular Allosteric Binding Site of the Chemokine Receptor CCR1” (ACS Pharmacology & Translational Science, 2024).

Target: T1, CXCR2 (Homo sapiens, UniProt P25025)
T1 construct: host or cells: HEK293T, transient
T1 sequence (P25025 1-360): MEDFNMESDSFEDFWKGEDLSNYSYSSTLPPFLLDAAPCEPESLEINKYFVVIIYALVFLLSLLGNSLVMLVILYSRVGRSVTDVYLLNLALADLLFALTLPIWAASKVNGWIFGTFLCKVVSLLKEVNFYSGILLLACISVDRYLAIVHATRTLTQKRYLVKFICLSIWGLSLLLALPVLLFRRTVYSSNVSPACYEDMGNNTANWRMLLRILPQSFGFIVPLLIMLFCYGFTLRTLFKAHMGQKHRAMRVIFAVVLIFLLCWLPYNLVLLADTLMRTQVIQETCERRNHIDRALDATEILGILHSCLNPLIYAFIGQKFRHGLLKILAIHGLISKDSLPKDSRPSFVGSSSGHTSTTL
Test: NanoBRET-based assay for binding to the IABS of CXCR2, as previously reported
Conditions: up to a concentration of 20 μM
Text: With 6 (Figure 1), a first lead structure for intracellular CCR1 inhibition that features an approximately 20-fold CCR1 over CCR2 selectivity was previously discovered by Ortiz Zacarías et al.([33]) In order to discover new chemotypes for selective CCR1 over CCR2 inhibition, we aimed to apply our novel NanoBRET competition binding assay for CCR1 in combination with our recently published CCR2 competition binding assay based on 7.[47] In our first attempt, we screened a small in-house library enriched with intracellular GPCR ligands and structural analogues thereof. […] Additionally, we tested 23 for binding to the IABS of CCR9 and CXCR2 using our recently reported NanoBRET-based assay platform (Figure 6C).[44],[45] In the course of these studies, we detected no binding of 23 to CCR9 and CXCR2 up to a concentration of 20 μM. Since cell lineage-dependent effects have been observed for CCR1 antagonists,[59] we studied the CCR1 over CCR2 selectivity of 23 by using a previously reported radioligand binding assay with membrane preparations from osteosarcoma (U2OS) cells stably expressing human CCR1 or CCR2.[33] […] In agreement with these previous reports,[33] we observed a reduction in CCR1 over CCR2 selectivity when moving from membrane-based binding assays to cell-based functional assays. […]

Question: How did the “Binding to the IABS of CXCR2” value turn out when `O=C(C1=C(O)C(=O)N(CCc2ccc(O)cc2)C1c1ccc(F)cc1)c1ccccc1` (racemic) [compound 23] was run?
Answer: Its value is “no binding”.
